{"source": "paper PMC11013252", "about": "“Exploration of the Antibacterial and Anti-Inflammatory Activity of a Novel Antimicrobial Peptide Brevinin-1BW” (Molecules, 2024)", "key": {"[1]": {"tested_on": "K. pneumoniae (ATCC700603)", "test": "microbe, parasite or virus in culture", "format": "cell-based, Klebsiella pneumoniae", "conditions": "ATCC700603, 18 h", "method": "(§1) The minimum inhibitory concentration (MIC) of the Brevinin-1BW was measured in 96-well microtiter plates according to the Clinical and Laboratory Standards Institute (CLSI). The activated strains were treated with Mueller Hinton Agar (MHA) solid medium. Single colonies were picked and expanded to the logarithmic growth phase, and the solution was diluted to 2 × 10^6 CFU/mL using the McFarland turbidity standard. The MIC was determined with the two-fold dilution method. Briefly, 50 μL of Mueller Hinton (MH) medium was added to a 96-well plate in advance. Then, 50 μL of AMP solution was added to the first well, and 50 μL was pipetted into the next well after mixing using a row gun, while 50 μL was discarded from the last well. Final concentrations of Brevinin-1BW were 100, 50, 25, 12.5, 6.25, and 3.125 μg/mL. A 50 μL volume of the diluted bacterial solution was added, and the final concentration of the bacterial solution was 1 × 10^6 CFU/mL. This was then placed into a 37 °C incubator for 18 h until the next day to observe the degree of turbidity of the 96-well plate and measure the absorbance of the wells at 600 nm with a multifunctional microplate reader (SpectraMax iD5, Molecular Devices, Sunnyvale, CA, USA). The absence of turbidity and the measured concentration of absorbance being less than the opposing group was taken as the MIC. The positive control used ampicillin at the same final concentration as Brevinin-1BW, the negative control used 50 μL of MH medium mixed with 50 μL of 2 × 10^6 CFU/mL bacterial solution, and the blank contained only 100 μL of MH medium. Three replicate wells were set up for each experiment, and each experiment was repeated three times. The MIC and all concentrations above the MIC of bacterial solution coated on MHA solid medium were placed into 37 °C incubator incubation for 18 h. The lowest concentration resulting in no colony growth was taken as the minimum bactericidal concentration (MBC)."}, "E. coli (ATCC25922)": {"tested_on": "E. coli (ATCC25922)", "test": "microbe, parasite or virus in culture", "format": "cell-based", "conditions": "ATCC25922, 18 h", "method": "as §1"}}, "note": "Positions of bridges follow the written chain, without caps; N, C: chain ends. Residues, ends and D or L forms follow the SMILES beside them."}
{"compound": "CC[C@H](C)[C@@H]1NC(=O)[C@H](CCCCN)NC(=O)[C@@H](NC(=O)[C@H](Cc2ccccc2)NC(=O)[C@@H](NC(=O)[C@@H](NC(=O)[C@@H]2CCCN2C(=O)[C@H](CC(C)C)NC(=O)[C@H](Cc2ccccc2)NC(=O)[C@H](CO)NC(=O)[C@H](C)NC(=O)[C@H](C)NC(=O)[C@H](CC(C)C)NC(=O)CNC(=O)[C@H](C)NC(=O)[C@H](CC(C)C)NC(=O)[C@H](CC(C)C)NC(=O)[C@@H]2CCCN2C(=O)[C@H](CC(C)C)NC(=O)[C@@H](N)Cc2ccccc2)[C@@H](C)O)[C@@H](C)CC)CSSC[C@@H](C(=O)O)NC(=O)[C@H](CCCCN)NC(=O)[C@H](CCCNC(=N)N)NC(=O)[C@H](CO)NC1=O", "note": "[Brevinin-1BW] (H-FLPLLAGLAASFLPTIFCKISRKC-OH; disulfide 18-24)", "values": [{"measurement": "MBC", "setting": "[1]", "result": ">100", "unit": "µg/mL"}, {"measurement": "MIC", "setting": "[1]", "result": ">100", "unit": "µg/mL"}, {"measurement": "MBC", "setting": "E. coli (ATCC25922)", "result": ">100", "unit": "µg/mL"}, {"measurement": "MIC", "setting": "E. coli (ATCC25922)", "result": 100, "unit": "µg/mL"}]}
